From patent US3966956A, “[1-(P-Chlorobenzoyl)-5-methoxy-2-methyl-3-indole]acetoxyacetic acid and salts in treating inflammation” (Troponwerke Dinklage & Company, priority 1972, dated 1976)
Where a name gives a salt, the structure may show the parent alone. Read-outs that look alike come from different tables or passages of the source.

Columns and labels:
kaolin oedema of the paw = kaolin oedema of the paw of a rat; assay type: in vivo; conditions: for ED50: read-out: ED50 (dose which reduces the oedemas by half as compared with a control group)
[1] = test system: formalin oedema of the paw; assay: formalin oedema on the paw of a rat; assay type: in vivo; conditions: once orally
Text: (§1) Furthermore, with two other forms of inflammation, the inflammations produced with formalin and carrageenin on the paw of a rat, the oedema-inhibiting efficiency of I is stronger than that of II. […] These differences are also statistically significant.

[2] = test system: carrageenin oedema of the paw; assay: carrageenin oedema on the paw of a rat; assay type: in vivo; conditions: once orally
Text: as §1

adjuvant arthritis = assay: arthritis produced in the rat with Freud's adjuvants; assay type: in vivo
[3] = test system: sulphydryl groups present in the serum; assay: Gerber method: reaction velocity of serum sulphydryl groups with 2,2'-dinitro-5,5-dithiobenzoic acid; assay type: biochemical; conditions: concentration range 0.5 to 3 mMol/liter
Text: Another characteristic test for determining the activity of non-steroid antiphlogistic substances is the method described by D. A. Gerber, N. Cohen and R. Giustra (cf. Biochem. Pharmacol. 16 (1967) 115) of influencing the physical-chemical behaviour of native protein, for example influencing the reaction velocity of the sulphydryl groups present in the serum with 2,2'-dinitro-5,5-dithiobenzoic acid. […] Since, according to Gerber et al, (loc. cit.), the percentage increase in reaction velocity is directly proportional to antiphlogistic activity, a greater activity of I by comparison with II can also be derived from this […] test; this applies above all in the lower concentration ranges (105:39) which come closest to the therapeutically attainable concentrations. In this case, too, the intact compound I can be shown to be the only active component.

human albumin = assay: protein binding by the ultracentrifuging method; assay type: in vitro ADME; conditions: same protein and equivalent substance concentration
Text: Another interesting criterion for the activity of a pharmacon is protein binding. It is known that, in the serum, pharmacons are partly bound to protein and it is only those fractions that are not bound to protein which are responsible for the onset of biological activity. […] Where human albumin is used, the differences amount to about 60%, in other words, for the same protein concentration and an equivalent substance concentration, the values for non-protein-bound I are about 60% higher than those of II. The values found for II are consistent with those described in the literature (cf. E. Hvidberg et al, Eur. J. clin. Pharmacol. 4 (1972), 119). Accordingly, I can be expected to show greater activity in this test as well, i.e. a smaller dosage of I is required which can again be of advantage in toxicological terms.

[4] = resorption after oral administration in dogs; assay type: in vivo; conditions: dog
[5] = acute oral toxicity (LD50), mouse; conditions: in vivo, single oral administration, I given as sodium salt
Experimental: (§2) The toxicity data (LD50) of both compounds are as follows:
(§3) As regards I, after single oral administration of 55.5 mg/kg to the mouse and 38.9 mg/kg to the rat (using the sodium salt of I). The corresponding data for II are 18.4 and 24.5 mg/kg, respectively.

[6] = acute oral toxicity (LD50), rat; conditions: in vivo, single oral administration, I given as sodium salt
Experimental: as §2, §3

protein = assay: Mizushima's Test (inhibition of protein hazing); assay type: biochemical
Experimental: It was also possible to confirm the superiority of I over II in Mizushima's Test in which potent antiphlogistics are known to inhibit protein hazing directly proportional to their antiphlogistic potency (cf. Arch. int. Pharmacodyn. 149 (1964), 1, and 157 (1965), 115).
A DE50 of 0.07 mg/ml was measured for the sodium salt of I, in other words the level of protein hazing was inhibited by 50% at this concentration.

[7] = cited from earlier work
[8] = patients, relatively slight side effects and serious cases; cited from earlier work
[9] = stability of the dissolved sodium salt in water or water/alcohol; assay type: physicochemical; conditions: aqueous or aqueous-alcoholic solution
Text: the free acid I can be converted into its salts in a manner known per se. Pharmacologically acceptable and conventional inorganic and organic bases can be considered for this purpose.

Compound: COc1ccc2c(c1)c(CC(=O)OCC(=O)O)c(C)n2C(=O)c1ccc(Cl)cc1 [I, [1-(p-chlorobenzoyl)-5-methoxy-2-methyl-3-indole]-acetoxyacetic acid]
- ED50 (kaolin oedema of the paw; rat, single oral application, range of confidence (P = 5%): I 0.37 to 0.67, II 0.83 to 1.40): 0.5 mg/kg
- relative effectiveness I versus II on kaolin oedema (kaolin oedema of the paw; rat, single oral, from ED50): about twice as effective as II
- inhibition of formalin oedema ([1]; 1.5 mg/kg): 25%
- inhibition of carrageenin oedema ([2]; 1.5 mg/kg): 62%
- antiphlogistic effect on adjuvant arthritis compared with II (adjuvant arthritis; oral, daily dose 3.5 mg/kg of I versus equimolar 3 mg/kg of II): decidedly stronger than that of the equimolar daily dose of 3 mg/kg of II
- inflammation-inhibiting efficiency on adjuvant arthritis (adjuvant arthritis; primary and generalised inflammation symptoms): strong inflammation-inhibiting efficiency
- increase in reaction velocity of serum sulphydryl groups [3]: 105-335%
- increase of non-protein-bound fraction over II (human albumin): about 60%
- detection as an unchanged molecule in the organism [4]: can be detected as an unchanged molecule for several hours in the organism
- resorption after oral administration [4]: well resorbed after oral administration
- LD50 [5]: 55.5 mg/kg
- LD50 [6]: 38.9 mg/kg

Compound: COc1ccc2c(c1)c(CC(=O)O)c(C)n2C(=O)c1ccc(Cl)cc1 [II, 1-(p-chlorobenzoyl)-5-methoxy-2-methyl-3-indole acetic acid, reference compound]
- ED50 (kaolin oedema of the paw; Rattus norvegicus, po): 1.04 mg/kg
- inhibition of formalin oedema ([1]; 1.6 mg/kg): 13.8%
- inhibition of carrageenin oedema ([2]; 1.6 mg/kg): 42%
- DE50 (concentration inhibiting the level of protein hazing by 50%) (protein): 0.13 mg/mL
- increase in reaction velocity of serum sulphydryl groups [3]: 39-272%
- LD50 [5]: 18.4 mg/kg
- LD50 [6]: 24.5 mg/kg
- patients in whom therapy had to be discontinued because of the side effects [7]: ~10%
- side effects [8]: neurosensitive disturbances such as headaches, vertigos and concentration difficulties, digestive complaints with loss of appetite, sickness, stomach pains, diarrhoea and, finally, some serious cases of intestinal bleeding, stomach ulcers and, occasionally, neurological deficiency symptoms

Compound: COc1ccc2c(c1)c(CC(=O)OCC(=O)O)c(C)n2C(=O)c1ccc(Cl)cc1 [sodium salt of I]
- DE50 (concentration inhibiting the level of protein hazing by 50%) (protein): 0.07 mg/mL
- stability/clarity of solution of the sodium salt [9]: the solution remains clear for a considerable period of time

Compound: COc1ccc2c(c1)c(CC(=O)O)c(C)n2C(=O)c1ccc(Cl)cc1 [sodium salt of the known compound II, reference compound]
- stability/clarity of solution of the sodium salt [9]: almost immediately, a clouding of the solution and the compound II begins to decompose
